{"source": "patent US8648042B2", "about": "“Pharmaceutical compositions” (priority 2011, dated 2014)", "key": {"pUC119 plasmid DNA": {"tested_on": "pUC119 plasmid DNA", "test": "Protection of plasmid DNA from H2O2 and UV exposure (electrophoresis)", "type": "biochemical", "conditions": "20 mM H2O2 + 20 mJ/m^2 UV; Amifostine 2000 μg/ml, GP-A 4000 μg/ml; FIG. 3", "experimental": "In this example, we examined the ability of GP-A in protecting plasmid DNA from hydrogen peroxide (H2O2) and UV exposure, which was also an indicator of the ability of quenching free radicals because free radicals tend to attack DNA structure. Amifostine, GP-Amifostine and GP were respectively dissolved in dd-water at various concentrations.\nThe above-nine experimental groups were then mixed with 3 μl loading dye for electrophoresis in order to observe the integrity of the plasmid DNA."}, "[1]": {"conditions": "cited from earlier work"}, "[2]": {"conditions": "patients, intravenously before each fraction of radiation therapy; cited from earlier work"}, "[3]": {"conditions": "NSCLC patients, chemoradiation therapy, Arm 2; cited from earlier work"}, "[4]": {"conditions": "cited from earlier work", "remark": "listed apart in the source"}}}
{"compound": "NCCCNCCSP(=O)(O)O", "note": "[Amifostine, S-2-(3-aminopropylamino)ethyl dihydrogen phosphorothioate]", "values": [{"measurement": "protection ability against UV & H2O2 treated plasmid DNA", "setting": "pUC119 plasmid DNA", "value": "solid and slight protection ability"}, {"measurement": "protection of brain and spinal cord from radiation damage", "setting": "[1]; brain and spinal cord", "value": "not protected"}, {"measurement": "protection of normal tissues from radiation damage (factor)", "setting": "[1]; esophagus, lung, kidney, liver, bone marrow, immune system, skin, colon, small bowel, salivary gland, oral mucosa, testis", "value": "≤ 3"}, {"measurement": "distribution between normal tissues and tumors", "setting": "[1]; in vivo", "value": "selectively concentrated in normal tissues but passively absorbed by tumors"}, {"measurement": "sparing of tumors from the effects of radiation or chemotherapy", "setting": "[1]; tumors", "value": "no evidence that tumors were spared"}, {"measurement": "severity of acute and late xerostomia", "setting": "[2]", "value": "significant reduction"}, {"measurement": "Median survival time", "setting": "[3]", "value": 19, "unit": "months"}, {"measurement": "discharge from a human body", "setting": "[4]; human", "value": "within one hour"}, {"measurement": "undesirable side-effects of systemic administration", "setting": "[4]; patients, systemic administration", "value": "nausea, vomiting, emesis and hypotension, as well as flushing or feeling of warmth, chills or feeling of coldness, dizziness, somnolence, hiccups and sneezing"}]}
